According to publication PMC5869189 (Frontiers in Immunology, 2018):

Test system: PBMC from healthy, seropositive donors
Assay type: cell-based, human

Q: SQVANDNAVAAQVAGNLRT [BPSS1531_P41] was tested. Which “% Responders” value did it give?
A: 80.0%

Q: What about the “Median SFC/10^6 PBMCs (IFN-g)” value of the same sequence?
A: 197

Q: How did the “% Responders” value turn out when PATANAKCDGALVAQAPAPA [BPSL2522_P7] was run?
A: 82.9%

Q: And the “Median SFC/10^6 PBMCs (IFN-g)” value?
A: 265

Q: NVPSSVTFATDQYAITPAFT [BPSL0999_P11] was tested. Which “% Responders” value did it give?
A: 95.7%

Q: And the “Median SFC/10^6 PBMCs (IFN-g)” value?
A: 399

Q: REPKKQDICYATQNRQDAVK [BPSL0919_P21] was tested. Which “% Responders” value did it give?
A: 94.6%

Q: And the “Median SFC/10^6 PBMCs (IFN-g)” value?
A: 422

Q: How did the “% Responders” value turn out when DQYAITPAFTPLLNDLATTL [BPSL0999_P12] was run?
A: 83.0%

Q: And the “Median SFC/10^6 PBMCs (IFN-g)” value?
A: 358

Q: With TQLLARLQWLDAAAKLERLL [BPSS1599_P35] as the sequence, how does the “% Responders” value read?
A: 93.8%

Q: And the “Median SFC/10^6 PBMCs (IFN-g)” value?
A: 145

Q: What does the source list for VPLTAPTANDTPLADDSVVR [BPSS1599_P33]?
A: % Responders: 83.3%; Median SFC/10^6 PBMCs (IFN-g): 147

Q: What does the source list for NASRTVSLDPRFIPPLLDTR [BPSS0530_P19]?
A: % Responders: 97.7%; Median SFC/10^6 PBMCs (IFN-g): 334

Q: How did the “% Responders” value turn out when RDLAVSKLSQLAGVQVVQSN [BPSL0280_P21] was run?
A: 93.1%

Q: What about the “Median SFC/10^6 PBMCs (IFN-g)” value of the same sequence?
A: 493

Q: What does the source list for APGGWRLERYECTPGTAHYA [BPSS1599_P28]?
A: % Responders: 87.5%; Median SFC/10^6 PBMCs (IFN-g): 163

Q: What does the source list for ETGQLVTRLCWKSQLRSDEV [BPSS0530_P16]?
A: % Responders: 81.4%; Median SFC/10^6 PBMCs (IFN-g): 266

Q: Which “% Responders” value does the source give for QPKRLDDLLPRRGGRPRTER [BPSS1599_P17] here?
A: 83.3%

Q: And the “Median SFC/10^6 PBMCs (IFN-g)” value?
A: 141

Q: With GPEMAFGDVELASRYRAVST [BPSS0530_P12] as the sequence, how does the “% Responders” value read?
A: 97.7%

Q: And the “Median SFC/10^6 PBMCs (IFN-g)” value?
A: 308

Q: What does the source list for AVRDHAFMPNGDWVGSREEA [BPSS1599_P12]?
A: % Responders: 97.9%; Median SFC/10^6 PBMCs (IFN-g): 178

Q: SVLAQEAPARQHRIDMHGMR [BPSS1531_P31] was tested. Which “% Responders” value did it give?
A: 88.6%

Q: And the “Median SFC/10^6 PBMCs (IFN-g)” value?
A: 182

Q: How did the “% Responders” value turn out when VGLQAGAQSKAIVFLFMTQD [BPSL1445_P12] was run?
A: 93.9%

Q: And the “Median SFC/10^6 PBMCs (IFN-g)” value?
A: 321

Q: How did the “% Responders” value turn out when WSDGMLIETQHFQQLERHLA [BPSS0530_P2] was run?
A: 90.7%

Q: What about the “Median SFC/10^6 PBMCs (IFN-g)” value of the same sequence?
A: 260

Q: With RRGGRPRTERWWALRPVERR [BPSS1599_P18] as the sequence, how does the “% Responders” value read?
A: 97.9%

Q: And the “Median SFC/10^6 PBMCs (IFN-g)” value?
A: 172

Q: How did the “% Responders” value turn out when MSAQVIQIGRQRFVGGLFWQ [BPSS1599_P1] was run?
A: 81.3%

Q: And the “Median SFC/10^6 PBMCs (IFN-g)” value?
A: 189

Q: For AGAILGAVVTGVALVAAAFV [BPSS1532_P44], which “% Responders” value is on record?
A: 100.0%

Q: And the “Median SFC/10^6 PBMCs (IFN-g)” value?
A: 156

Q: APGTPRRLTIETGQLVTRLC [BPSS0530_P15] was tested. Which “% Responders” value did it give?
A: 93.0%

Q: And the “Median SFC/10^6 PBMCs (IFN-g)” value?
A: 255

Q: With LGAMVSRAIALEGAFYNGRR [BPSS1599_P8] as the sequence, how does the “% Responders” value read?
A: 89.6%

Q: And the “Median SFC/10^6 PBMCs (IFN-g)” value?
A: 99

Q: For HQASLRLGQTSNHGWGFTLL [BPSS0530_P4], which “% Responders” value is on record?
A: 83.7%

Q: And the “Median SFC/10^6 PBMCs (IFN-g)” value?
A: 239

Q: Which results are given for EFVRAIDVPGLRVERIAYQN [BPSS1599_P41]?
A: % Responders: 87.5%; Median SFC/10^6 PBMCs (IFN-g): 135

Q: KLNHYSFGDVKGELIDQLGV [BPSL2096_P11] was tested. Which “% Responders” value did it give?
A: 88.2%

Q: And the “Median SFC/10^6 PBMCs (IFN-g)” value?
A: 320

Q: Which results are given for AWRREHKDLDKLNHYSFGDV [BPSL2096_P10]?
A: % Responders: 88.2%; Median SFC/10^6 PBMCs (IFN-g): 351

Q: What does the source list for AVNDNWVNGTGEWVWMNGTN [BPSL2522_P4]?
A: % Responders: 91.4%; Median SFC/10^6 PBMCs (IFN-g): 368

Q: Which results are given for ALPIARVAGRNASRTVSLDP [BPSS0530_P18]?
A: % Responders: 100.0%; Median SFC/10^6 PBMCs (IFN-g): 249

Q: With HFQQLERHLAHQASLRLGQT [BPSS0530_P3] as the sequence, how does the “% Responders” value read?
A: 83.7%

Q: What about the “Median SFC/10^6 PBMCs (IFN-g)” value of the same sequence?
A: 253

Q: With EAEEREAALERVRAELAARQ [BPSS1599_P23] as the sequence, how does the “% Responders” value read?
A: 91.7%

Q: And the “Median SFC/10^6 PBMCs (IFN-g)” value?
A: 147

Q: How did the “% Responders” value turn out when NSYTSQIAQLNEQIASASSQ [BPSL0280_P18] was run?
A: 93.1%

Q: And the “Median SFC/10^6 PBMCs (IFN-g)” value?
A: 523

Q: Which results are given for ELVGLLGRLSVLPGVDEELA [BPSS0530_P28]?
A: % Responders: 88.4%; Median SFC/10^6 PBMCs (IFN-g): 260

Q: How did the “% Responders” value turn out when FAYWHHRAKVEAEEREAALE [BPSS1599_P22] was run?
A: 95.8%

Q: And the “Median SFC/10^6 PBMCs (IFN-g)” value?
A: 169

Q: What does the source list for KVYTEGKGKRNPVTGNTCKQ [BPSL2522_P18]?
A: % Responders: 94.3%; Median SFC/10^6 PBMCs (IFN-g): 288

Q: How did the “% Responders” value turn out when GVALVAAAFVGASAVKAVAS [BPSS1532_P45] was run?
A: 83.9%

Q: And the “Median SFC/10^6 PBMCs (IFN-g)” value?
A: 142

Q: Which results are given for ETPVLPLRFEDRGDQVHICI [BPSS0530_P33]?
A: % Responders: 86.0%; Median SFC/10^6 PBMCs (IFN-g): 233

Q: For LSPRAALIAATAACVVLGGA [BPSS1599_P20], which “% Responders” value is on record?
A: 97.9%

Q: What about the “Median SFC/10^6 PBMCs (IFN-g)” value of the same sequence?
A: 150

Q: How did the “% Responders” value turn out when YLVSKGVPANKVYTEGKGKR [BPSL2522_P17] was run?
A: 82.9%

Q: And the “Median SFC/10^6 PBMCs (IFN-g)” value?
A: 312

Q: Which results are given for LLVVEPGATLDTDGERATLD [BPSS1599_P31]?
A: % Responders: 83.3%; Median SFC/10^6 PBMCs (IFN-g): 151

Q: Which “% Responders” value does the source give for ATFIVDPDNTIQHVSVNNLN [BPSL2096_P14] here?
A: 91.2%

Q: And the “Median SFC/10^6 PBMCs (IFN-g)” value?
A: 344

Q: Which “% Responders” value does the source give for TPLADDSVVRTQLLARLQWL [BPSS1599_P34] here?
A: 97.9%

Q: And the “Median SFC/10^6 PBMCs (IFN-g)” value?
A: 147

Q: With PLLNDLATTLNQNPQITASV [BPSL0999_P13] as the sequence, how does the “% Responders” value read?
A: 91.5%

Q: And the “Median SFC/10^6 PBMCs (IFN-g)” value?
A: 357
